{"source": "patent US6346273B1", "about": "“Process for solubilizing pharmaceutically active ingredients in water and in aqueous vehicles” (Farmigea S.p.A., priority 1997, dated 2002)", "key": {"[1]": {"assay": "Amounts of drugs solubilized at 20° C. in water, with PVP, with PEG-GTR and with the method of the invention", "assay_type": "physicochemical", "description": "In this table, the solubility of each drug in water is compared with the solubility obtainable with the complexation method (with PVP) and with the solubility obtainable with the micellar solubilization method with surfactants (with PEG-GTR). In all cases it is evident that the combined method according to the invention affords solubility increases that are largely greater than the sum of the increases obtainable with each one of the prior art methods."}, "[2]": {"conditions": "co-precipitated with PVP having M.W.=50,000; cited from earlier work"}, "[3]": {"conditions": "PVP (M.W. = 10,000) 18.0 % w/w in water"}}}
{"smiles": "CC(=O)OCC(=O)[C@@]12OC(C)(C)O[C@@H]1C[C@H]1[C@@H]3CC(C=O)=C4C=C(OCCCl)CC[C@]4(C)[C@@]3(F)[C@@H](O)C[C@@]12C", "note": "[Formocortal]", "values": [{"measurement": "Amt. of drug solubilized at 20° C. (% w/w)", "setting": "[1]; PEG-GTR 5.0 % w/w in water", "value": 0.0252, "unit": "% w/w"}, {"measurement": "Amt. of drug solubilized at 20° C. (% w/w)", "setting": "[1]; [3]", "value": 0.0022, "unit": "% w/w"}, {"measurement": "Amt. of drug solubilized at 20° C. (% w/w)", "setting": "[1]; PVP (M.W. = 10,000) + PEG-GTR (18.0 + 5.0 % w/w), method of the invention", "value": 0.10, "unit": "% w/w"}, {"measurement": "Amt. of drug solubilized at 20° C. (% w/w)", "setting": "[1]; water, solubilizing agent none", "value": 0.008, "unit": "% w/w"}]}
{"smiles": "C[C@@H]1O[C@@H](OC[C@H]2O[C@@H](Oc3c(-c4ccc(O)c(O)c4)oc4cc(O)cc(O)c4c3=O)[C@H](O)[C@@H](O)[C@@H]2O)[C@H](O)[C@H](O)[C@H]1O", "note": "[Rutin]", "values": [{"measurement": "Amt. of drug solubilized at 20° C. (% w/w)", "setting": "[1]; PEG-GTR 10.0 % w/w in water", "value": 0.074, "unit": "% w/w"}, {"measurement": "Amt. of drug solubilized at 20° C. (% w/w)", "setting": "[1]; PVP (M.W. = 2000-3000) 30.0 % w/w in water", "value": 0.37, "unit": "% w/w"}, {"measurement": "Amt. of drug solubilized at 20° C. (% w/w)", "setting": "[1]; PVP (M.W. = 2000-3000) + PEG-GTR (30.0 + 10.0 % w/w), method of the invention", "value": 1.0, "unit": "% w/w"}, {"measurement": "Amt. of drug solubilized at 20° C. (% w/w)", "setting": "[1]; water, solubilizing agent none", "value": 0.0125, "unit": "% w/w"}]}
{"smiles": "COc1ccc2c(C(=S)N(C)CC(=O)O)cccc2c1C(F)(F)F", "note": "[Tolrestat]", "values": [{"measurement": "Amt. of drug solubilized at 20° C. (% w/w)", "setting": "[1]; PEG-GTR 6.0 % w/w in water", "value": 0.60, "unit": "% w/w"}, {"measurement": "Amt. of drug solubilized at 20° C. (% w/w)", "setting": "[1]; PEG-GTR 8.0 % w/w in water", "value": 0.80, "unit": "% w/w"}, {"measurement": "Amt. of drug solubilized at 20° C. (% w/w)", "setting": "[1]; PEG-GTR 10.0 % w/w in water", "value": 1.20, "unit": "% w/w"}, {"measurement": "Amt. of drug solubilized at 20° C. (% w/w)", "setting": "[1]; PVP (M.W. 10,000) + PEG-GTR (18.0 + 8.0 % w/w), method of the invention", "value": 2.0, "unit": "% w/w"}, {"measurement": "Amt. of drug solubilized at 20° C. (% w/w)", "setting": "[1]; [3]", "value": 0.05, "unit": "% w/w"}, {"measurement": "Amt. of drug solubilized at 20° C. (% w/w)", "setting": "[1]; PVP (M.W. = 10,000) + PEG-GTR (18.0 + 6.0 % w/w), method of the invention", "value": 1.50, "unit": "% w/w"}, {"measurement": "Amt. of drug solubilized at 20° C. (% w/w)", "setting": "[1]; PVP (M.W. = 10,000) + PEG-GTR (18.0 + 10.0 % w/w), method of the invention", "value": 3.0, "unit": "% w/w"}, {"measurement": "solubility in water", "setting": "[1]; at 20° C.", "value": "0.75 mg/100 g of water"}, {"measurement": "solubility when treated with complexation with PVP", "setting": "[1]; complexation with PVP", "value": "0.05 % (w/w)"}, {"measurement": "solubility by means of surface-active agents", "setting": "[1]; optimized choice of surfactant and amounts", "value": "~1.2 % (w/w)"}, {"measurement": "original solubility", "setting": "[1]; water, no solubilization technique", "value": "0.00075 % (w/w)"}, {"measurement": "Amt. of drug solubilized at 20° C. (% w/w)", "setting": "[1]; water, solubilizing agent none", "value": 0.00075, "unit": "% w/w"}]}
{"smiles": "O=C1NC(=O)C(c2ccccc2)(c2ccccc2)N1", "note": "[phenytoin]", "values": [{"measurement": "solutions stability", "setting": "[2]", "value": "maximum of two years"}]}
{"smiles": "C=C[C@@]1(C)CC(=O)[C@]2(O)[C@@]3(C)[C@@H](O)CCC(C)(C)[C@@H]3[C@H](O)[C@H](OC(C)=O)[C@@]2(C)O1", "note": "[Forskolin]", "values": [{"measurement": "Amt. of drug solubilized at 20° C. (% w/w)", "setting": "[1]; PEG-GTR 10.0 % w/w in water", "value": 0.05, "unit": "% w/w"}, {"measurement": "Amt. of drug solubilized at 20° C. (% w/w)", "setting": "[1]; PVP (M.W. = 10,000) 30.0 % w/w in water", "value": 0.03, "unit": "% w/w"}, {"measurement": "Amt. of drug solubilized at 20° C. (% w/w)", "setting": "[1]; PVP (M.W. = 10,000) + PEG-GTR (30.0 + 10.0 % w/w), method of the invention", "value": 0.20, "unit": "% w/w"}, {"measurement": "Amt. of drug solubilized at 20° C. (% w/w)", "setting": "[1]; water, solubilizing agent none", "value": 0.0029, "unit": "% w/w"}]}
{"smiles": "CN1C(C(=O)Nc2ccccn2)=C(O)c2ccccc2S1(=O)=O", "note": "[Piroxicam]", "values": [{"measurement": "Amt. of drug solubilized at 20° C. (% w/w)", "setting": "[1]; PEG-GTR 2.5 % w/w in water", "value": 0.13, "unit": "% w/w"}, {"measurement": "Amt. of drug solubilized at 20° C. (% w/w)", "setting": "[1]; PVP (M.W. = 10,000) 20.0 % w/w in water", "value": 0.081, "unit": "% w/w"}, {"measurement": "Amt. of drug solubilized at 20° C. (% w/w)", "setting": "[1]; PVP (M.W. = 10,000) + PEG-GTR (20.0 + 2.5 % w/w), method of the invention", "value": 0.50, "unit": "% w/w"}, {"measurement": "Amt. of drug solubilized at 20° C. (% w/w)", "setting": "[1]; water, solubilizing agent none", "value": 0.0017, "unit": "% w/w"}]}
{"smiles": "CN1CCN(c2c(F)cc3c(=O)c(C(=O)O)cn4c3c2SCC4)CC1", "note": "[Rufloxacin]", "values": [{"measurement": "Amt. of drug solubilized at 20° C. (% w/w)", "setting": "[1]; PEG-GTR 1.0 % w/w in water", "value": 0.03, "unit": "% w/w"}, {"measurement": "Amt. of drug solubilized at 20° C. (% w/w)", "setting": "[1]; PVP (M.W. = 44,000-54,000) 15.0 % w/w in water", "value": 0.24, "unit": "% w/w"}, {"measurement": "Amt. of drug solubilized at 20° C. (% w/w)", "setting": "[1]; PVP (M.W. = 44,000-54,000) + PEG-GTR (15.0 + 1.0 % w/w), method of the invention", "value": 0.30, "unit": "% w/w"}, {"measurement": "Amt. of drug solubilized at 20° C. (% w/w)", "setting": "[1]; water, solubilizing agent none", "value": 0.029, "unit": "% w/w"}]}
